From patent publication US8269017B2, “Compounds for the treatment of proliferative disorders” (Synta Pharmaceuticals Corporation, priority 2005, dated 2012)
pIC50: −log10 of the molar value. Counter-ions that a name gives are not always drawn. Like-named read-outs stand apart in the source and are kept apart here.

What was measured:
SB cells = experiment: Induction of apoptosis in SB cells (Annexin V/PI, FACS); type: cell-based; details: 24 h; for % Apoptotic Cells Gated: 1 μM; for cytotoxicity at 1 µM: read-out: % Dead Cells Gated; for viability at 1 µM: read-out: % Live Cells Gated
Procedure: SB cells (2×10^5 cells/mL) were cultured in 12-well plates (2 mL/well) and were left untreated (negative control), treated with Taxol (positive control), or treated with a compound of the invention for 24 h at 37° C. After treatment, the cells were washed one time with 1×PBS and stained with FITC labeled anti-Annexin V and PI (10 μg/ml) for 15 min at room temperature. The cells were analyzed by FACSCalibur (Becton Dickinson).

MDA-435 = experiment: Cytotoxicity in MDA-435 tumor cells (Cell Counting Kit 8); type: cell-based; details: Homo sapiens, MDA435, MDA-435 cells, 70 h
Procedure: Tumor cell line, MDA-435, was seeded in 96-well plates at 1×10^4 cells/well in DMEM medium and treated with compounds at different concentrations. Taxol was used as a positive control. The cells were incubated at 37° C. for 70 h. Viability of the cells was measured with Cell Counting Kit 8 (Dojindo, Cat #CK04). IC50 of the compounds was determined by Five-Parameter Logistic equation.

MDA-435 cells = experiment: Cell cycle analysis in MDA-435 cells; type: cell-based, human; details: 20 h, Taxol 30 nM, Comp. 1 100 nM, Comp. 2 500 nM, Comp. 3 10 nM, Comp. 6 800 mM (so in the source), Comp. 46 50 nM
Procedure: MDA-435 cells were cultured in 6-well plates at 1×10^6 cells/well and were untreated (negative control), treated with Taxol (positive control), or treated with a compound of the invention at 37° C. for 20 h. The cells were detached with 1× trypsin and washed one time with PBS. Cycle TEST PLUS kit (BD PharMingen, Cat #340242) was used to stain the cells. Cell cycle was analyzed with FACScomp program (BS PharMingen).

[1] = system: MES-SA/DX5 (uterine sarcoma, MDR-1); experiment: cells; type: cell-based; details: MES/DX5 (MDR-1), MTS assay
Procedure: (§1) The in vitro cytotoxicity of the compounds of the invention was determined in the following human cell lines: HL-60 (T-cell leukemia), MDA-435 and MCF-7 (human breast carcinoma), NCI-H460 and H29 (colon carcinoma), DU145 (prostate carcinoma), and MES-SA and MES-SA/DX5 (uterine sarcoma). MES-SA is a model of uterine sarcoma, and the cell are sensitive to a number of chemotherapeutic agents including doxorubicin, dactinomycin, mitomycin C, taxol and bleomycin, but resistant to vinblastine and cisplatin. MES-SA/Dx5 was established in the presence of increasing concentrations of doxorubicin. […] All cells were purchased from ATCC.
(§2) The cell lines were maintained in RPMI1640 (GIBCO) supplemented with 10% FCS, 100 units/mL penicillin, 100 ug/ml streptomycin, and 2 mM L-glutamine. Cells were split every third day and diluted to a concentration of 2×10^5 cells/mL one day before the experiment was performed. All experiments were performed on exponentially growing cell cultures. Cell densities were 2.5×10^4 cells/mL in all experiments.
(§3) Compounds of the invention were prepared by dissolving the compound at a concentration of 10 mM in 100% DMSO. Final concentrations 10, 1, 0.1, 0.01 and 0.001 μM were obtained by diluting the stock solution directly into the tissue culture medium.

MES-SA (uterine sarcoma) = experiment: In vitro cytotoxicity, MTS assay, MES-SA; type: cell-based, human; details: MES-SA (Uterine Carcinoma)
Procedure: as §1, §2, §3

HL-60 (T-cell leukemia) = experiment: In vitro cytotoxicity, MTS assay, HL-60; type: cell-based, human
Procedure: as §1, §2, §3

[2] = system: microtubules of CV-1 cells; experiment: Microtubule disruption in CV-1 cells resistant to colchicine and vincristine; type: cell-based, Africa green monkey; details: 500 nM
Text: The effects of compounds of the invention on microtubules were studied in CV-1 cells. The microtubules of CV-1 cells are known to be resistant to the depolymerizing effects of colchicine and vincristine. […] Cells were then fixed and stained to examine microtubule structure.

[3] = Homo sapiens, 72 hours, read-out: IC50
[4] = Homo sapiens, HL-60, HL60 (Leukemia), 72 hours, read-out: IC50
[5] = Homo sapiens, HL-60, 72 h, HL60 (Leukemia)

Structure (SMILES) | % Apoptotic Cells Gated (SB cells) | cytotoxicity at 1 µM (SB cells) | viability at 1 µM (SB cells) | pIC50 (MDA-435) | pIC50 ([1]; Homo sapiens, MDR1, 72 h) | also measured
CCc1cc(-c2oncc2-c2ccc3ccccc3c2)c(O)cc1OC [Compound 2, 4-(Naphthalen-2-yl)-5-(2-hydroxy-4-methoxy-5-ethyl-phenyl)-isoxazole] | 22.73% | 22.7% | 45.7% | 7.10 | – | Apoptotic Population (%) (MDA-435 cells): 11.17%; G0/G1 Phase (%) (MDA-435 cells): 21.25%; G2/M Phase (%) (MDA-435 cells): 30.53%; S Phase (%) (MDA-435 cells): 37.67%
CCc1cc(-c2oncc2-c2ccc(OC)cc2)c(O)cc1OC [Compound 44, 4-(4-Methoxy-phenyl)-5-(2-hydroxy-4-methoxy-5-ethyl-phenyl)-isoxazole] | 16.05% | 12.3% | 64.8% | 6.70 | – | –
COc1cc(-c2oncc2-c2ccc(C(C)C)cc2)cc(OC)c1OC [Compound 45, 4-(4-Isopropyl-phenyl)-5-(3,4,5-trimethoxy-phenyl)-isoxazole] | 17.74% | 15.4% | 62% | 6.66 | – | –
CCc1ccc(-c2cnoc2-c2cc(OC)c(OC)c(OC)c2)cc1 [Compound 47, 4-(4-Ethyl-phenyl)-5-(3,4,5-trimethoxy-phenyl)-isoxazole] | 13.83% | 14.8% | 61.9% | 7.33 | – | –
COc1ccc(-c2oncc2-c2ccc3c(c2)OCCO3)cc1OC [Compound 161, 4-(2,3-Dihydro-benzo[1,4]dioxin-6-yl)-5-(3,4-dimethoxy-phenyl)isoxazole] | 14.61% | 10.5% | 66.8% | 6.23 | – | –
CCc1cc(-c2oncc2-c2ccc(C)c(C)c2)c(O)cc1OC [Compound 162, 4-(3,4-Dimethy-phenyl)-5-(2-hydroxy-4-methoxy-5-ethyl-phenyl)-isoxazole] | 17.74% | 11.5% | 64.6% | 6.07 | – | –
COc1cc(-c2cnoc2-c2ccc(Br)cc2)cc(OC)c1OC [Compound 168, 4-(3,4,5-Trimethoxy-phenyl)-5-(4-bromo-phenyl)-isoxazole] | 15.49% | 14.4% | 60.4% | < 6.00 | – | –
COc1ccc(-c2cnoc2-c2cc(OC)c(OC)c(OC)c2)cc1NC(=O)C(N)CO (stereo not drawn) [Compound 170, 2-amino-3-hydroxy-N-(2-methoxy-5-[5-(3,4,5-trimethoxy-phenyl)-isoxazol-4-yl)-phenyl)propanamide hydrochloride] | – | – | – | – | 8.52 | pIC50 (MES-SA (uterine sarcoma); [3]): 8.05; pIC50 (HL-60 (T-cell leukemia); [4]): 8.70
COc1ccc(-c2cnoc2-c2cc(OC)c(OC)c(OC)c2)cc1NC(=O)C(C)N (stereo not drawn) [Compound 171, 2-amino-N-(2-methoxy-5-[5-(3,4,5-trimethoxy-phenyl)-isoxazol-4-yl)-phenyl)propanamide] | – | – | – | – | – | pIC50 ([1]; 72 hours): 8.40; pIC50 (MES-SA (uterine sarcoma); 72 hours): 8.70; pIC50 (HL-60 (T-cell leukemia); HL60 (Leukemia), 72 hours): 8.30
COc1ccc(-c2cnoc2-c2cc(OC)c(OC)c(OC)c2)cc1NC(=O)C(N)CCSC (stereo not drawn) [Compound 172, 2-amino-N-(2-methoxy-5-(5-(3,4,5-trimethoxyphenyl)isoxazol-4-yl)phenyl)-4-(methylthio)butanamide Hydrochloride] | – | – | – | – | 10.00 | pIC50 (MES-SA (uterine sarcoma); [3]): 10.00; pIC50 (HL-60 (T-cell leukemia); [4]): 8.30
CCC(N)C(=O)Nc1cc(-c2cnoc2-c2cc(OC)c(OC)c(OC)c2)ccc1OC (stereo not drawn) [Compound 173, 2-amino-N-(2-methoxy-5-(5-(3,4,5-trimethoxyphenyl)isoxazol-4-yl)phenyl)butanamide Hydrochloride] | – | – | – | – | 10.00 | pIC50 (MES-SA (uterine sarcoma); [3]): 10.00; pIC50 (HL-60 (T-cell leukemia); [4]): 8.70
COc1ccc(-c2cnoc2-c2cc(OC)c(OC)c(OC)c2)cc1NC(=O)C(N)CC(C)C (stereo not drawn) [Compound 175, 2-amino-N-(2-methoxy-5-(5-(3,4,5-trimethoxyphenyl)isoxazol-4-yl)phenyl)-4-methylpentanamide Hydrochloride] | – | – | – | – | 10.00 | pIC50 (MES-SA (uterine sarcoma); [3]): 10.00; pIC50 (HL-60 (T-cell leukemia); [4]): 8.30
COc1ccc(CC(N)C(=O)Nc2cc(-c3cnoc3-c3cc(OC)c(OC)c(OC)c3)ccc2OC)cc1 (stereo not drawn) [Compound 176, 2-amino-N-(2-methoxy-5-(5-(3,4,5-trimethoxyphenyl)isoxazol-4-yl)phenyl)-3-(4-methoxyphenyl)propanamide] | – | – | – | – | 10.00 | pIC50 (MES-SA (uterine sarcoma); Homo sapiens, MES-SA, 72 h): 10.00; pIC50 (HL-60 (T-cell leukemia); [5]): 7.19
COc1ccc(-c2cnoc2-c2cc(OC)c(OC)c(OC)c2)cc1OP(=O)(O)O [Compound 177, 2-methoxy-5-[5-(3,4,5-trimethoxy-phenyl)-isoxazol-4-yl)-phenyl dihydrogen phosphate] | – | – | – | – | 8.40 | pIC50 (MES-SA (uterine sarcoma); Homo sapiens, MES-SA, 72 h): 8.10; pIC50 (HL-60 (T-cell leukemia); HL60 (Leukemia), 72 hours): 7.28
COc1ccc(-c2cnoc2-c2cc(OC)c(OC)c(OC)c2)cc1NC(=O)C(C)N (stereo not drawn) [Compound 204, 2-amino-N-(2-methoxy-5-(5-(3,4,5-trimethoxyphenyl)isoxazol-4-yl)phenyl)propanamide Hydrochloride] | – | – | – | – | – | pIC50 ([1]; 72 hours, Hydrochloride): 6.92; pIC50 (MES-SA (uterine sarcoma); 72 hours, Hydrochloride): 6.97; pIC50 (HL-60 (T-cell leukemia); HL60 (Leukemia), 72 hours, Hydrochloride): 6.30
COC(=O)CNCC(=O)Nc1cc(-c2cnoc2-c2cc(OC)c(OC)c(OC)c2)ccc1OC [Compound 241, methyl 2-(2-(2-methoxy-5-(5-(3,4,5-trimethoxyphenyl)isoxazol-4-yl)phenylamino)-2-oxoethylamino)acetate] | – | – | – | – | 7.20 | pIC50 (MES-SA (uterine sarcoma); [3]): 6.87; pIC50 (HL-60 (T-cell leukemia); [4]): 6.22
COc1ccc(-c2cnoc2-c2cc(OC)c(OC)c(OC)c2)cc1NC(=O)CCN [Compound 243, 3-amino-N-(2-methoxy-5-(5-(3,4,5-trimethoxyphenyl)isoxazol-4-yl)phenyl)propanamide Hydrochloride] | – | – | – | – | 7.42 | pIC50 (MES-SA (uterine sarcoma); Homo sapiens, MES-SA, 72 h): 7.30; pIC50 (HL-60 (T-cell leukemia); [5]): 7.20
COc1cc2c(c(OC)c1OC)-c1ccc(OC)c(=O)cc1[C@@H](NC(C)=O)CC2 [colchicine] | – | – | – | – | – | microtubule structure ([2]; 24 hr): disorganized but clear microtubule structures were found; microtubule structure ([2]; 48 hr): microtubule structures were still found
CC[C@]1(O)C[C@H]2CN(CCc3c([nH]c4ccccc34)[C@@](C(=O)OC)(c3cc4c(cc3OC)N(C=O)[C@H]3[C@@](O)(C(=O)OC)[C@H](OC(C)=O)[C@]5(CC)C=CCN6CC[C@]43[C@@H]65)C2)C1 [vincristine, Vincristine] | – | – | – | – | – | microtubule structure ([2]; 24 hr): disorganized but clear microtubule structures were found; microtubule structure ([2]; 48 hr): microtubule structures were still found
